According to patent US20230095341A1, “COMPOSITIONS AND METHODS FOR TREATING NEURODEGENERATIVE, MYODEGENERATIVE, AND LYSOSOMAL STORAGE DISORDERS” (GEORGETOWN UNIVERSITY, priority 2020, published 2023):
Entries after “also recorded” stand apart in the source; their conditions may differ.

Legend:
[1] = system: Tauopathy rTG4510 mice expressing human P301L tau; assay: Overnight nest shredding (nesting) behavior; type: in vivo, mouse; conditions: 2.5 mg/kg I.P., three weeks
Description: Tauopathy rTG4510 mice (i.e., a mouse model that clinically manifest a tauopathy), expressing human P301L tau driven by a CAMrII promoter, approximately 9-12 months old, were treated intraperitoneally (I.P.) for 21 consecutive days, […], or Dimethyl sulfoxide (DMSO) (n=7).
Then, blinded, independent observers reviewed images of the overnight shredding and the average quality scores were calculated.
For nest shredding, Mann-Whitney analysis was used within groups, between timepoints, and Kruskal-Wallis analysis was used between treatment groups. For open-field studies, : ordinary one-way ANOVA or Student's I test was used. […]
Blinded independent observers reviewed images of the overnight shredding and the average quality scores were calculated.

[2] = system: Tauopathy rTG4510 mice expressing human P301L tau; assay: Open-field behavior; type: in vivo, mouse
Description: (§1) Tauopathy rTG4510 mice (i.e., a mouse model that clinically manifest a tauopathy), expressing human P301L tau driven by a CAMrII promoter, approximately 9-12 months old, were treated intraperitoneally (I.P.) for 21 consecutive days, with 2.5 mg/kg (n=6) BK40197, 5.0 mg/kg (n=6) BK40197, or Dimethyl sulfoxide (DMSO) (n=7).
Open-field behavior was assessed in an open-field apparatus where animals were tracked by photocell beams along the arena floor for 60 minutes. Data were collected and analyzed for total distance traveled (cm), total time spent moving (sec), and velocity (distance/time) during the 60-minute trial. A center zone was digitally defined in the software, in the center of the apparatus, and center zone entries during the 60-minute trial were recorded.
For nest shredding, Mann-Whitney analysis was used within groups, between timepoints, and Kruskal-Wallis analysis was used between treatment groups. For open-field studies, : ordinary one-way ANOVA or Student's I test was used.

[3] = target: T1, phosphorylated DDR1 (pDDR1 Tyr513, 296) (Mus musculus, UniProt Q03146); assay: Western blot of phosphorylated DDR1; type: in vivo, mouse (rTG4510); conditions: vs DMSO, normalized to actin
T1 construct: Samples collected from DMSO, 2.5 mg/kg-, and 5.0 mg/kg-treated animals were electrophoresed; from tissue; the ELISA samples were total brain lysates
T1 sequence (Q03146 20-911): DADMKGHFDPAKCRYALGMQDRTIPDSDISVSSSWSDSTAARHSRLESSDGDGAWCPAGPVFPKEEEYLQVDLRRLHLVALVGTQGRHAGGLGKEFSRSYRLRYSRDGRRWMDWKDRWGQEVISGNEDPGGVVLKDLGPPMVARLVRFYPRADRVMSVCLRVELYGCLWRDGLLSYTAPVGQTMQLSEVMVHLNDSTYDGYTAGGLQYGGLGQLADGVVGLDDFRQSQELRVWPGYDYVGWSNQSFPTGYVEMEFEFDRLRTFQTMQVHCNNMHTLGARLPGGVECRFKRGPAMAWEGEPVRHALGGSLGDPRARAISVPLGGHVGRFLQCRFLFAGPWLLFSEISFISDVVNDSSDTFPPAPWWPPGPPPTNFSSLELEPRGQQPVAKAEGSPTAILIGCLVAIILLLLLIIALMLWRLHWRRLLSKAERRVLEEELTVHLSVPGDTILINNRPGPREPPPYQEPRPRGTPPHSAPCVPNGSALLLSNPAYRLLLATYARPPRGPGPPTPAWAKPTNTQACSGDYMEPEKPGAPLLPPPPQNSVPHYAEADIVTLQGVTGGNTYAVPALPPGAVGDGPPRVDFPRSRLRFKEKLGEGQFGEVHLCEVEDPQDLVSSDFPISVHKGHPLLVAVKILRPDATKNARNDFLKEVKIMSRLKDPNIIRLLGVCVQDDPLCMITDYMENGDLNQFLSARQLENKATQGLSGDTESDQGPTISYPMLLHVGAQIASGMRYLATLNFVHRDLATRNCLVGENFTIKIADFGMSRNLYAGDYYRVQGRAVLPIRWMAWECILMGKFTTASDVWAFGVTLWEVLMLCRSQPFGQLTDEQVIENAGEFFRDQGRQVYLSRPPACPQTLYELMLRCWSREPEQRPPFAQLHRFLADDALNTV

p-Tau (Ser396) = assay: pTau Ser396 ELISA of total brain lysates; type: in vivo, mouse (rTG4510, expressing human P301L tau); conditions: for reduction in pTau Ser396: vs DMSO
Description: as §1
pTau Ser396 (Invitrogen, Cat. No. KHB7031, Carlsbad, Calif.) were performed according to manufacturer's protocol on samples collected from DMSO, 2.5 mg/kg-, and 5.0 mg/kg-treated animals. Samples for ELISA were total brain lysates extracted in IX STEN buffer.

p-Tau AT180 (Thr231) = assay: Western blot of p-Tau AT180 (Thr231); type: in vivo, mouse (rTG4510, expressing human P301L tau); conditions: 2.5 mg/kg; vs DMSO
Description: as §1
(§2) Samples collected from DMSO, 2.5 mg/kg-, and 5.0 mg/kg-treated animals were electrophoresed in a NuPAGE 10% Bis-Tris gel and transferred to a nitrocellulose membrane. Membranes were then probed for total humnan tau (HT-7 antibody and Tau-5 antibody) and phospho-tau (pTau AT180 antibody and pTau AT8 antibody), as well as actin, and treated with an anti-mouse secondary antibody. before exposure using SuperSignal West Dura (Thermo Fisher Scientific, Waltham, Mass.) substrates. Some animials were excluded from analysis due to low transgene expression.

[4] = system: p-Tau AT8 (Ser202, Thr205); assay: Western blot of p-Tau AT8 (Ser202, Thr205); type: in vivo, mouse (rTG4510, expressing human P301L tau); conditions: 2.5 mg/kg; vs DMSO
Description: as §1, §2

[5] = system: B35 rat neuroblastoma cells; assay: Lactate dehydrogenase (LDH) assay, cell toxicity; type: cell-based; conditions: 5 hours, concentration given in the value
Description: (§3) Rat neuroblastoma B35 cells were grown in Dulbecco's Modified Eagle's Medium (DMEM) with 10% Fetal Bovine Serum (FBS) and 1% penicillin/streptomycin and incubated at 37° C. with 5% CO2. For the experiments, cells were transferred to 12-well plates (Cat. #150628, ThermoFisher, Waltham, Mass.) and grown to at least 70% confluence. Transient transfection was performed with 3pg P301L tau (Cat. #30145, Addgene) cDNA or 3pg human a-synuclein cDNA using Fugene HD transfection reagent (Cat. #E2311, Promega, Madison Wis.) for 24 hours. Cells were treated with ImM, I00pM, 10pM, IpM, 0.lIM, 0.01pMl, and 0.001pM dissolved in DMSO or an equivalent SuL of DMSO for 5 hours. Cell culture media was collected and cells were harvested using sodium-tris, EDTA, NP-40 (STEN) buffer and centrifuged at 10,000×g for 20 minutes at 4′C and supernatant was collected. Cell viability was determined via lactate dehydrogenase assay (Cat. #88954, Thermofisher) and MTT assay (Cat. #V13154, Thennofisher). Protein was extracted by removing culture medium and adding 0.2 ml lx STEN buffer (50 mM Tris (pH 7.6), 150 mM NaCl, 2 mM EDTA, 0.2% NP-40, 0.2% BSA, 20 mM PMSF and protease cocktail inhibitor) to cell layer and incubated on ice for 10 minutes. The bottom of the well was scraped and allowed to incubate on ice for an additional 10 minutes. Cell lysates were collected, stored at -80° C., and used for additional analyses.
(§4) Compound 1 (BK5018), Compound 2 (BK5026), Compound 3 (BK5029), Compound 4 (BD5040), Compound 6 (CL2-296). Compound 7 (CL-2-287-1) and Compound 8 (CL-2-287-2) with molecular weights of 284, 339.265, 264, 339, 269 and 247 gimol, respectively, were diluted in Dimethyl Sulfoxide (DMSO) to final concentrations of 100 pM, 10 µM, 1 pM, 0.1 pM, 0.01 pM, and 0.001 pM. Drugs were stored at −80° C.
Cellular cytotoxicity was quantitatively measured by assessment of LDH, a cytosolic enzyme that is released from damaged cells into the cellular media, after exposure to the drug 5 hours after initial dosage. The cell culture media was collected, and an aliquot was coupled with a lactate and NAD+. LDH catalyzes the reaction that converts lactate into pyruvate to produce NADH. NADH, in turn, reduces a tetrazolium salt (NT) into a red fornazan product. The amount of LDH in the media is proportional to the amount of formazan which was measured at 490 nn. The absorbance at 680 nm, to measure the background signal from the instrument, was subtracted from the absorbance at 490 nm to calculate the LDH activity. CelfCulture

[6] = system: B35 rat neuroblastoma cells; assay: MTT assay, cell viability; type: cell-based; conditions: 5 hours, concentration given in the value
Description: as §3, §4
To measure cell viability, cells were incubated with 500 pL of Dulbecco's Modified Eagle's Medium (DMEf) containing 50 pL of (3-[4,5-dimethylthiazol-2-yl]-2,5-diphenyl-tetrazolium bromide (ivT)) for 5 hours at 37° C. and 5% CO2. The media was aspirated so that 125 uL of media remained. The formazan salts were dissolved in 250 uL of DMSO. Absorbance was read against a blank containing 125 uL of media and MTT, and 250 uL of DMSO at 570 mn.

tau = assay: Tau ELISA of whole brain lysates from rTG4510 mice (CL-287-2); type: in vivo, mouse (rTG4510, expressing human P301L Tau); conditions: 5 mg/kg; 12 month old rTG4510 mice
Description: Tauopathy rTG4510 mice expressing human P301L Tau driven by CAMIII were treated I.P. for 7 or 21 consecutive days with 1.25 mg/kg, 2.5 mg/kg, 5.0 mg/kg of BK40143 or Dimethyl sulfoxide (DMSO).
pTau Ser396 (Invitrogen, KHB7031) ELISA was performed according to manufacturer's protocol on samples collected from DMSO and 2.5mgkg. S.Omg′kg, and 10 mg/kg treated mice. Samples were total brain lysates extracted in lX STEN buffer. Ordinary one-way ANOVA or Student's ! test was used. * P<0.05

Structure (SMILES)	nesting raw scores (nesting qualitative score) ([1]; vs 0 weeks (Mann-Whitney P=0.09) and vs DMSO (Kruskal-Wallis P=0.06))	nesting mean difference scores ([1]; vs DMSO (Kruskal-Wallis P=0.06))	overall motor ability (open field) ([2]; 5.0 mg/kg I.P., 60 minutes open field)	open-field distance travelled ([2]; 5.0 mg/kg, sixty minutes, vs DMSO (ANOVA p=0.29))	open-field time spent moving ([2]; 5.0 mg/kg, sixty minutes, vs DMSO (ANOVA p=0.32))	hyperactivity/anxiety by observed center zone entries ([2]; 5.0 mg/kg, vs DMSO)	open-field velocity ([2]; 5.0 mg/kg, vs DMSO)	reduction in phosphorylated DDR1 (pDDR1 Tyr513, 296) ([3]; 2.5 mg/kg)	reduction in phosphorylated DDR1 (pDDR1 Tyr513, 296) ([3]; 5.0 mg/kg)	reduction in pTau Ser396 (p-Tau (Ser396); 2.5 mg/kg)	reduction in pTau Ser396 (p-Tau (Ser396); 5.0 mg/kg)	p-Tau (Ser396) levels (p-Tau (Ser396); dose dependent, 2.5 and 5.0 mg/kg, quantitative ELISA)	reduction in the ratio of p-Tau (Thr231) (AT180) to total Tau (p-Tau AT180 (Thr231))	reduction in the ratio of p-Tau AT8 (Ser202, Thr205) to total Tau [4]	cell toxicity, as measured by LDH assay [5]	cell toxicity, as measured by MTT assay [6]	tau in whole brain lysates (tau)
Cc1cccc(-c2cc3nccc(N4CCOCC4)c3s2)c1 [BK40197, 4-(2-(m-Tolyl)thieno[3,2-b]pyridin-7-yn)morpholine]	nesting performance improved; also recorded: increase in performance	nesting performance improved; also recorded: increase in performance	does not alter overall motor ability	non-significant reduction	non-signicant reduction; also recorded: non-significant reduction	no sign of hyperactivity/anxiety; also recorded: no sign of hyperactivity % anxiety	no difference in velocity	22%	21%	11%	23%	significantly reduces	22%	14%	–	–	–
O=C(O)c1ccccc1Nc1cccc(Cl)c1 [CL-2-287-2, 2-((3-Chlorophenyl)amino)benzoic acid]	–	–	–	–	–	–	–	–	–	–	–	–	–	–	at 100 uM or less did not show increased cell toxicity; also recorded: at 100 pM or less did not show increased cell toxicity	at 10 pM or less did not show increased cell toxicity	significant reduction
